These results are taken from US20060228387A1, “Dihydronepetalactams and N-substituted derivatives thereof” (priority 2004, published 2006).

For the test, the system named is Aedes aegypti mosquitoes. Nature of the test: in vitro Gupta box landing assay (insect repellency). The settings on record: 20 min; 1% (w/v) in isopropyl alcohol, 25 μL on Baudruche membrane; female Aedes aegypti; landings over 20 min vs IPA control. The method, then: The products of Examples 1-15 were evaluated for insect repellency against Aedes aegypti mosqutioes in the in vitro Gupta box landing assay. In this method a chamber contained 5 wells, each covered by a Baudruche (animal intestine) membrane. Each well was filled with bovine blood containing sodium citrate (to prevent clotting) and ATP (72 mg ATP disodium salt per 26 ml of blood), and heated to 37° C. A volume of 25 μL of isopropyl alcohol (IPA) containing one test specimen or control was applied to each membrane. The concentrations of the dihydronepetalactam products were 1% (w/v) in IPA. The negative control was neat IPA and the positive control was a 1% (w/v) solution of DEET. After 5 min, approximately 250 4-day-old female Aedes aegypti mosquitoes were introduced into the chamber. The number of mosquitoes probing the membranes for each treatment was recorded at 2 min intervals over 20 min. The results obtained in this manner with respect to the compounds of […] are depicted in FIGS. 1-10 (labeled as Examples 16˜25), wherein each datum represents the mean of five replicate experiments. […] The % mean repellencies at 1% (w/v) are depicted in Table 2 for the compounds of Examples 1˜15, wherein R refers to the substituent on dihydronepetalactam.

For the compound `C#CCN1C[C@@H](C)[C@H]2CC[C@H](C)[C@H]2C1=O` [IVj, (4S,4aR,7S,7aR)-2-n-propargyl-4,7-dimethyloctahydro-1H-cyclopenta[c]pyridin-1-one], the pest or weed control at 10000 µg/mL is 88.1%.
Under `CCCN1C[C@@H](C)[C@H]2CC[C@H](C)[C@H]2C1=O` [IVc, (4S,4aR,7S,7aR)-2-n-propyl-4,7-dimethyloctahydro-1H-cyclopenta[c]pyridin-1-one] stands 87.9%.
Turning to `C[C@@H]1CN(c2ccccc2)C(=O)[C@H]2[C@@H]1CC[C@@H]2C` [VIIa, (4S,4aR,7S,7aR)-4,7-dimethyl-2-phenyloctahydro-1H-cyclopenta[c]pyridin-1-one], the pest or weed control at 10000 µg/mL was found to be 59.5%.
Under `C[C@@H]1CN(c2ccc(Br)cc2)C(=O)[C@H]2[C@@H]1CC[C@@H]2C` [VIIc, (4S,4aR,7S,7aR)-2-(4-bromophenyl)-4,7-dimethyloctahydro-1H-cyclopenta[c]pyridin-1-one] stands 54.1%; under `C[C@@H]1CNC(=O)[C@H]2[C@@H]1CC[C@@H]2C` [V, (4S,4aR,7S,7aR)-4,7-dimethyloctahydro-1H-cyclopenta[c]pyridin-1-one], 69.6%.
In the case of `CCCCCCCCN1C[C@@H](C)[C@H]2CC[C@H](C)[C@H]2C1=O` [IVg, (4S,4aR,7S,7aR)-2-n-octyl-4,7-dimethyloctahydro-1H-cyclopenta[c]pyridin-1-one] it was 98.3%.
Under `C[C@@H]1CN(c2ccc(Cl)cc2)C(=O)[C@H]2[C@@H]1CC[C@@H]2C` [VIIb, (4S,4aR,7S,7aR)-2-(4-chlorophenyl)-4,7-dimethyloctahydro-1H-cyclopenta[c]pyridin-1-one] stands 81.5%; under `CCCCCN1C[C@@H](C)[C@H]2CC[C@H](C)[C@H]2C1=O` [IVe, (4S,4aR,7S,7aR)-2-n-pentyl-4,7-dimethyloctahydro-1H-cyclopenta[c]pyridin-1-one], 100%; under `CCCCN1C[C@@H](C)[C@H]2CC[C@H](C)[C@H]2C1=O` [IVd, (4S,4aR,7S,7aR)-2-n-butyl-4,7-dimethyloctahydro-1H-cyclopenta[c]pyridin-1-one], 86.3%.
In turn, `C[C@@H]1CN(C)C(=O)[C@H]2[C@@H]1CC[C@@H]2C` [IVa, (4S,4aR,7S,7aR)-2,4,7-trimethyloctahydro-1H-cyclopenta[c]pyridin-1-one] came in with a pest or weed control at 10000 µg/mL of 39.6%.
Under `C=CCN1C[C@@H](C)[C@H]2CC[C@H](C)[C@H]2C1=O` [IVi, (4S,4aR,7S,7aR)-2-n-allyl-4,7-dimethyloctahydro-1H-cyclopenta[c]pyridin-1-one] stands 90.6%; under `CCCCCCN1C[C@@H](C)[C@H]2CC[C@H](C)[C@H]2C1=O` [IVf, (4S,4aR,7S,7aR)-2-n-hexyl-4,7-dimethyloctahydro-1H-cyclopenta[c]pyridin-1-one], 99.8%; under `CC(C)N1C[C@@H](C)[C@H]2CC[C@H](C)[C@H]2C1=O` [IVh, (4S,4aR,7S,7aR)-2-n-isopropyl-4,7-dimethyloctahydro-1H-cyclopenta[c]pyridin-1-one], 69.4%.
In the case of `CCN1C[C@@H](C)[C@H]2CC[C@H](C)[C@H]2C1=O` [IVb, (4S,4aR,7S,7aR)-2-ethyl-4,7-dimethyloctahydro-1H-cyclopenta[c]pyridin-1-one] it was 96.8%.
